Experimental data from patent US12005072B2, “HIV drug combination for increasing barrier against resistance” (Merck Sharp & Dohme LLC, priority 2018, dated 2024).

Legend:
[1] = system: WT virus; assay: Susceptibility of virus to NRTIs (antiviral potency), Example 1; assay type: cell-based, HIV-1; conditions: for EC50: Human immunodeficiency virus 1
Protocol: (§1) Common doravirine-associated mutants containing F227C substitution were derived from SDM. The experimental conditions for susceptibility evaluation are described in Lai, Ming-Tain, et al., In Vitro Characterization of MK-1439, a Novel HIV-1 Nonnucleoside Reverse Transcriptase Inhibitor. Antimicrobial Agents and Chemotherapy 58(3): 1652-1663, 2014. These mutants conferred more than 100-fold of resistance to DOR. The susceptibility of the mutants to EFdA and 3TC was also evaluated under the same conditions. […] In contrast, the mutants are hypersusceptible to EFdA with 2-5 fold increase in susceptibility with all mutants except the quardruple mutant.

[2] = system: A98G/V106I/H221Y/F227C mutant; assay: Susceptibility of SDM derived DOR-resistant mutant to NRTIs, Example 1; assay type: cell-based, HIV-1; conditions: for EC50: Human immunodeficiency virus 1, read-out: Antiviral Potency
Protocol: as §1

[3] = system: F227C mutant; assay: as above; assay type: cell-based, HIV-1; conditions: for EC50: Human immunodeficiency virus 1, read-out: Antiviral Potency
Protocol: as §1

[4] = system: V106I/F227C mutant; assay: as above; assay type: cell-based, HIV-1; conditions: for EC50: Human immunodeficiency virus 1, read-out: Antiviral Potency
Protocol: as §1

[5] = system: A98G/F227C mutant; assay: as above; assay type: cell-based, HIV-1; conditions: for EC50: Human immunodeficiency virus 1, read-out: Antiviral Potency (nM)
Excerpt: (§2) Common doravirine-associated mutants containing F227C substitution were derived from SDM.

[6] = system: V106I/F227C/H221Y mutant; assay: as above; assay type: cell-based, HIV-1; conditions: for EC50: Human immunodeficiency virus 1, read-out: Antiviral Potency
Excerpt: as §2

[7] = system: V106M/F227C mutant; assay: as above; assay type: cell-based, HIV-1; conditions: for EC50: Human immunodeficiency virus 1, read-out: Antiviral Potency
Excerpt: as §2

[8] = system: K103N mutant virus; assay: Suppression of virus replication in vitro in 100% normal human serum; inhibitory quotient; assay type: cell-based, HIV-1; conditions: ratio of clinical trough concentration over antiviral EC50
Protocol: (§3) In addition, the susceptibility of a broader array of clinical-NNRTI-associated mutant viruses (a total of 96 viruses) to doravirine and other benchmark NNRTIs was investigated. […] See Lai, Ming-Tain, et al., In Vitro Characterization of MK-1439, a Novel HIV-1 Nonnucleoside Reverse Transcriptase Inhibitor. Antimicrobial Agents and Chemotherapy 58(3): 1652-1663, 2014.
(§4) Inhibitory quotients (IQs) were calculated by determining the ratio of the clinical trough concentration over the antiviral EC50 of various viruses. IQs have been employed to predict the potential efficacy of anti-viral agents.

[9] = system: K103N/Y181C mutant virus; assay: as above; assay type: cell-based, HIV-1; conditions: ratio of clinical trough concentration over antiviral EC50
Protocol: as §3, §4

[10] = system: Y181C mutant virus; assay: as above; assay type: cell-based, HIV-1; conditions: ratio of clinical trough concentration over antiviral EC50
Protocol: as §3, §4

[11] = system: other prevalent NNRTI-associated mutants; assay: Inhibitory quotients against other NNRTI-associated mutants; assay type: cell-based, HIV-1; conditions: with the exception of Y188L
Protocol: as §4

[12] = system: wild type (WT) virus; conditions: 100% normal human serum (NHS), read-out: EC50 suppressing replication; cited from earlier work
[13] = system: K103N mutant virus; conditions: 100% normal human serum (NHS), read-out: EC50 suppressing replication; cited from earlier work
[14] = system: Y181C mutant virus; conditions: 100% normal human serum (NHS), read-out: EC50 suppressing replication; cited from earlier work
[15] = system: K103N/Y181C mutant virus; conditions: 100% normal human serum (NHS), read-out: EC50 suppressing replication; cited from earlier work
[16] = system: clinical-NNRTI-associated mutant viruses (a total of 96 viruses); conditions: 96 clinical NNRTI-associated mutant viruses; cited from earlier work
[17] = system: HIV-1; conditions: escalating concentrations of DOR; cited from earlier work
[18] = system: Common doravirine-associated mutants containing F227C substitution; assay: Susceptibility of the SDM derived doravirine-associated mutants as a group; assay type: cell-based, HIV-1
Protocol: Site-directed mutagenesis (SDMs) were generated for the substitutions V1061/F227C, V1061/H221Y/F227C, A98G/V1061/H221Y/F227C, and V106M/F227C and their susceptibility to NNRTIs was evaluated. Most of the mutants conferred a high level of resistance to DOR with a fold change (FC)>100 (FC: mutantEC50 versus WTEC50).
FIG. 1. Susceptibility of SDM derived DOR-resistant clinical mutants to NRTIs. […] In contrast, the mutants are hypersusceptible to EFdA with 2-5 fold increase in susceptibility except the quardruple mutant.
as §1

[19] = system: HIV-1; assay: Proof of concept study in HIV-1 infected patients; assay type: in vivo, human; conditions: single dose as low as 0.5 mg
Protocol: EFdA was tested in HIV-1 infected patients for a proof of concept study.

[20] = system: HIV; conditions: compared with EFddA lacking a 3′-OH; cited from earlier work

Q: Which “Fold-change (EC50mut/WT EC50wt)” value [1] does the source give for `Nc1ccn([C@@H]2CS[C@H](CO)O2)c(=O)n1` [3TC, lamivudine, reference compound] here?
A: 1.0

Q: And the EC50 [1]?
A: 601 ± 142 nM

Q: And the “Fold-change (EC50mut/WT EC50wt)” value [2]?
A: 1.93

Q: What about the EC50 [2] of the same compound?
A: 1160 ± 314 nM

Q: And the “Fold-change (EC50mut/WT EC50wt)” value [3]?
A: 2.26

Q: What about the EC50 [3] of the same compound?
A: 1360 ± 94 nM

Q: What about the “Fold-change (EC50mut/WT EC50wt)” value [4] of the same compound?
A: 1.15

Q: And the EC50 [4]?
A: 692 ± 212 nM

Q: And the EC50 [5]?
A: 809 ± 146 nM

Q: What about the EC50 [6] of the same compound?
A: 758 ± 244 nM

Q: And the EC50 [7]?
A: 771 ± 62 nM

Q: With `Cn1c(Cn2ccc(C(F)(F)F)c(Oc3cc(Cl)cc(C#N)c3)c2=O)n[nH]c1=O` [Doravirine] as the compound, how does the “Inhibitory quotient (IQ)” value [8] read?
A: 39

Q: What about the “Inhibitory quotient (IQ)” value [9] of the same compound?
A: 25

Q: And the “Inhibitory quotient (IQ)” value [10]?
A: 27

Q: And the “IQ values compared with RPV and EFV” value [11]?
A: higher IQ values than RPV and EFV

Q: And the EC50 [12]?
A: 12 nM

Q: And the EC50 [13]?
A: 21 nM

Q: What about the EC50 [14] of the same compound?
A: 31 nM

Q: And the EC50 [15]?
A: 33 nM

Q: And the “mutant profile versus benchmark NNRTIs” value [16]?
A: superior overall to that of efavirenz (EFV) and comparable to that of etravirine (ETR) and rilpivirine (RPV)

Q: And the “mutations emerging in resistance selection” value [17]?
A: V106A mutant led two mutation pathways, followed by the emergence of F227L and L234I substitutions

Q: With `O=C1Nc2ccc(Cl)cc2[C@@](C#CC2CC2)(C(F)(F)F)O1` [EFV, efavirenz] as the compound, how does the “Inhibitory quotient (IQ)” value [8] read?
A: 2.5

Q: What about the “Inhibitory quotient (IQ)” value [9] of the same compound?
A: 1.9

Q: What about the “Inhibitory quotient (IQ)” value [10] of the same compound?
A: 60

Q: Which “Fold-change (EC50mut/WT EC50wt)” value [1] does the source give for `C#C[C@]1(CO)O[C@@H](n2cnc3c(N)nc(F)nc32)C[C@@H]1O` [EFdA, 4′-ethynyl-2-fluoro-2′-deoxyadenosine] here?
A: 1.0

Q: And the EC50 [1]?
A: 0.81 ± 0.029 nM

Q: What about the “Fold-change (EC50mut/WT EC50wt)” value [2] of the same compound?
A: 1.00

Q: And the EC50 [2]?
A: 0.81 ± 0.124 nM

Q: And the “Fold-change (EC50mut/WT EC50wt)” value [3]?
A: 0.18

Q: And the EC50 [3]?
A: 0.15 ± 0.026 nM

Q: What about the “Fold-change (EC50mut/WT EC50wt)” value [4] of the same compound?
A: 0.44

Q: What about the EC50 [4] of the same compound?
A: 0.35 ± 0.048 nM

Q: What about the “Fold-change (EC50mut/WT EC50wt)” value ([5]; A98G/F227C) of the same compound?
A: 0.18

Q: What about the EC50 [5] of the same compound?
A: 0.15 ± 0.026 nM

Q: What about the “Fold-change (EC50mut/WT EC50wt)” value [6] of the same compound?
A: 0.49

Q: And the EC50 [6]?
A: 0.4 ± 0.075 nM

Q: What about the “Fold-change (EC50mut/WT EC50wt)” value [7] of the same compound?
A: 0.37

Q: And the EC50 [7]?
A: 0.3 ± 0.048 nM

Q: What about the “susceptibility / potency of mutants compared with WT virus” value ([18]; mutants containing F227C substitution) of the same compound?
A: better potency compared to WT virus

Q: And the “fold increase in susceptibility (hypersusceptible)” value ([18]; {})?
A: 2-5 fold

Q: What about the “duration of suppression of HIV replication” value [19] of the same compound?
A: at least seven days

Q: What about the “antiviral activity relative to EFddA” value [20] of the same compound?
A: 10,000 times

Q: For `Cc1cc(/C=C/C#N)cc(C)c1Nc1ccnc(Nc2ccc(C#N)cc2)n1` [RPV, rilpivirine], which “Inhibitory quotient (IQ)” value [8] is on record?
A: 4.6

Q: What about the “Inhibitory quotient (IQ)” value [9] of the same compound?
A: 0.8

Q: What about the “Inhibitory quotient (IQ)” value [10] of the same compound?
A: 1.4
